# Experimental data taken from publication PMC4977052, “On the Utility of ToxCast™ and ToxPi as Methods for Identifying New Obesogens” (Environmental Health Perspectives, 2016).
# Where “and” joins values, the source holds several entries; their conditions need not be identical. Identical values can stand only once. Entries after “also recorded” stand apart in the source; their conditions may differ. Like-named read-outs stand apart in the source and are kept apart here.
# What was measured:
# GAL4-mPPARγ [1] = target: T1, GAL4-mPPARγ (Mus musculus, UniProt P37238); test: GAL4-mPPARγ activation, transient transfection luciferase reporter in COS7 cells; assay type: cell-based; details: for Activation of GAL4-PPARγ (text): COS7, 100 μM through 0.137 μM
# T1 construct: expressed in transfected cells; host or cells: COS7
# T1 sequence (P37238 with tags, fused parts or gaps limits assumed): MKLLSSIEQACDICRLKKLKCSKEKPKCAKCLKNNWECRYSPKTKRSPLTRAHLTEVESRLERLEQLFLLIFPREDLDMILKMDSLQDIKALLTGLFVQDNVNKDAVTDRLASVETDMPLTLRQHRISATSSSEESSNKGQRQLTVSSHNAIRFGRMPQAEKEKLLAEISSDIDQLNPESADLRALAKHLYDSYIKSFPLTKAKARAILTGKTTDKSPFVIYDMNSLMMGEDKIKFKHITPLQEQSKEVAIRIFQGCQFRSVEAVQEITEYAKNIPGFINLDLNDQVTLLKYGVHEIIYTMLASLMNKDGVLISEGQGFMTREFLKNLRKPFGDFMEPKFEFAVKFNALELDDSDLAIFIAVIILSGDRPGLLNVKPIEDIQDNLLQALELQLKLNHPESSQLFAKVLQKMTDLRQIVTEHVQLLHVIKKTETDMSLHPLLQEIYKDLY
# Description: (§1) pCMX-Gal4, pCMX-Gal4-mPPARγ, and pCMX-Gal4-hRXRα were previously described ([Grün et al. 2006]). Transient transfections were performed in COS7 cells as described ([Chamorro-García et al. 2012]). Briefly, COS7 cells were seeded at 15,000 cells per well in 96-well tissue culture plates in 10% calf bovine serum. The following day, cells were transfected in Opti-MEM at ~ 90% confluency. One microgram of CMX-GAL4 effector plasmid was co-transfected with 5 μg tk-(MH100)4-luciferase reporter and 5 μg of CMX-β-galactosidase transfection control plasmids in Opti-MEM® using Lipofectamine® 2000 reagent (Invitrogen™ Life Technologies, Carlsbad, CA, USA), following the manufacturer’s recommended protocol. All chemicals were solvated in dimethyl sulfoxide (DMSO). After overnight incubation, the medium was replaced with Dulbecco’s Modified Eagle Medium (DMEM; HyClone, Logan, UT, USA), 10% resin charcoal stripped fetal bovine serum (FBS) plus ligands at concentrations indicated in the figure legends for an additional 24 hr. DMSO concentration was maintained at 0.05% across all chemical treatments. Cells were lysed and assayed for luciferase and β-galactosidase activity as previously described ([Forman et al. 1995]). All transfections were performed in triplicate and reproduced in multiple experiments. Data are reported as fold induction or reduction over vehicle ([…]) controls ± SEM (standard error of the mean) using standard propagation of error ([Bevington and Robinson 2003]). […] The EC50, EC10, IC50, and IC10 values from NCGC and ToxCast™ are reported from gain AC50 and AC10 values in the ToxCast™ 2014 release ([Filer et al. 2014]).
# (§2) Figure 1 ToxCast™ Chemical Activity on PPARγ. The ability of a graded dose series of ToxCast™ chemicals to (A) activate or (B) antagonize GAL4-mPPARγ was tested in transiently transfected COS7 cells. (A, B) Data points are averages of triplicate transfections (three biological replicates). […] Data are depicted as (A) fold induction or (B) reduction over vehicle (0.05% DMSO) controls ± SEM. (A) ToxCast™ chemicals were tested in 3-fold serial dilutions from 100 μM through 0.137 μM, with the final data point being 0.05% DMSO. Rosiglitazone serves as a positive control activator. (B) ToxCast™ chemicals were tested in 3-fold serial dilutions from 100 μM, in competition with 50 nM rosiglitazone (Rosi). […] (C) EC50, EC10, IC50, and IC10 values calculated from A and B are reported and compared to commercial assays (see Figure S1). Note: ATG, Attagene GAL-PPARγ activation assay; NCGC, GeneBLAzer® agonist (EC values) or antagonist (IC values) assays. Triphenyltin was previously published ([Kanayama et al. 2005]).
# (§3) Figure 4 ToxPi Chemical Activity on PPARγ and RXRα. The ability of a graded dose series of ToxPi chemicals to activate (A) GAL4-mPPARγ or (B) GAL4-hRXRα was tested in transiently transfected COS7 cells. (A, B) Data points are averages of triplicate transfections (three biological replicates). […] ToxPi chemicals were tested in 3-fold serial dilutions from 100 μM through 0.137 μM, with the final data point being 0.05% DMSO. Data are depicted as fold induction over vehicle (0.05% DMSO) controls ± SEM. (A) Rosiglitazone serves as a positive control activator for GAL4-mPPARγ. (B) LG100268 (2-[1-(3,5,5,8,8-Pentamethyl-5,6,7,8-tetrahydro-2-naphthyl)cyclopropyl]pyridine-5-carboxylic acid) serves as a positive control activator for GAL4-hRXRα. (C) EC50 and EC10 values calculated from A and B are reported and compared to other assays (see Figure S1). ATG, Attagene GAL-PPARγ or GAL-RXRα activation assay; NCGC, GeneBLAzer® GAL-PPARγ or GAL-RXRα activation assays. Triphenyltin was previously published ([Kanayama et al. 2005]).
# 3T3-L1 preadipocytes = test: 3T3-L1 adipogenesis assay (lipid accumulation, adipogenic gene expression); assay type: cell-based; details: 0.02-20 μM, 5 days after MDI induction
# Description: 3T3-L1 cells (ATCC) were maintained in high-glucose DMEM supplemented with 10% fetal bovine serum, 2 mM L-glutamine, 50 IU/mL penicillin, and 50 μg/mL streptomycin. A total of 2 × 10^4 cells per well were seeded in 12-well plates. After 48 hr, cells were exposed to the adipogenic cocktail MDI (500 μM isobutylmethylxanthine, 0.25 nM dexamethasone and 5 μg/mL insulin), 8 μg/mL biotin and 8 μg/mL pantothenate for 2 days. Induction media was removed and cells were exposed to test chemicals during 5 days, replacing the media every 2 days. Rosiglitazone (ROSI) and tributyltin (TBT) were used as positive controls at 100 nM and 50 nM final concentrations, respectively. All ToxCast™ chemicals were tested at 0.02, 0.2, 2, and 20 μM, and DMSO concentration was maintained at 0.1% across all treatments. If the chemical was toxic at 20 μM, we repeated the experiment at 10 μM.
# Cells were either fixed in 3.7% formaldehyde in phosphate-buffered saline (PBS) for 30 min at room temperature (RT) for lipid quantitation, or homogenized in TriPure (Roche, Mannheim, Germany) for gene expression analysis. For lipid quantitation, fixed cells were washed twice with PBS and maintained in PBS overnight at 4°C to release residual phenol red. Background of cells were measured prior to staining. Cells were stained with 1 μg/mL Nile red (CAS No. 7385-67-3) (to detect lipid accumulation) and 1 μg/mL Hoechst 33342 (ThermoFisher Scientific) (to detect nuclei as a surrogate for cell number) in PBS for 15 min in the dark at RT and washed twice with PBS. […] Background values of Hoechst and Nile red were subtracted from the RFUs after staining and the ratio RFUNile Red:RFUHoechst was calculated. Data are represented as mean ± SEM. Total RNA was isolated using TriPure (Roche) as recommended by the manufacturer. Reverse transcription and quantitative real-time RT-PCR (QPCR) were performed using Transcriptor RT and SYBR® Green Master Mix (Roche). cDNA was quantitated in a LightCycler® 480 System (Roche Diagnostics, Basel, Switzerland) using primer sets listed in Table S4. Each primer set amplified a single band as determined by gel electrophoresis and melting curve analysis. QPCR data were analyzed using the 2^ΔΔCt method ([Livak and Schmittgen 2001]) relative to ribosomal protein 36b4, normalizing to 0.1% DMSO vehicle. Error bars represent the SEM from four to six biological replicates calculated using standard propagation of error ([Bevington and Robinson 2003]).
# PPARγ [2] = details: cited from earlier work
# PPRE = test system: PPRE; design: method as in Knudsen et al. 2011; details: ToxCast Phase I 2011 release; NA = not active; ref Knudsen et al. 2011; read-out: ATGC PPRE AC50; cited from earlier work
# PPARγ [3] = details: ref Filer et al. 2014, cited from earlier work
# PPARγ [4] = test system: PPARγ; design: method as in Filer et al. 2014; details: ref Filer et al. 2014, cited from earlier work; for AC50: PPARγ, NA = not active, read-out: NCGC Antag. AC50, 2014 Release
# GAL4-mPPARγ [5] = target: T1, GAL4-mPPARγ; test: GAL4-mPPARγ antagonism in competition with 50 nM rosiglitazone, transiently transfected COS7 cells; assay type: cell-based
# Description: as §1, §2
# Human PPARγ = details: cited from earlier work
# GAL4-hRXRα = target: T2, GAL4-hRXRα (Homo sapiens, UniProt P19793); test: GAL4-hRXRα activation, transient transfection luciferase reporter in COS7 cells; assay type: cell-based; details: COS7, 100 μM through 0.137 μM
# T2 construct: expressed in transfected cells; host or cells: COS7
# T2 sequence (P19793 with tags, fused parts or gaps limits assumed): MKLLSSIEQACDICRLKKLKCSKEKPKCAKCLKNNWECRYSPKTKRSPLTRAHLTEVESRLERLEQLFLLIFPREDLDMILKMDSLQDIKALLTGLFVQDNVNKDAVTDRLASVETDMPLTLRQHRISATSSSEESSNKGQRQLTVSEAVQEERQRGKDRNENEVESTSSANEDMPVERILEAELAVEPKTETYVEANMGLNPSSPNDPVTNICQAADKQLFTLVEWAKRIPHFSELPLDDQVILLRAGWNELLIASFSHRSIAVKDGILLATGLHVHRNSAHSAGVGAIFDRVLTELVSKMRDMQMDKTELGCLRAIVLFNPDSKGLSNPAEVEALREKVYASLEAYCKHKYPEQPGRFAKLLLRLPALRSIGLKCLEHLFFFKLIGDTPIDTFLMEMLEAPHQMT
# Description: as §1, §3
# [6] = PPARγ, NA = not active, ref Filer et al. 2014, read-out: ATG Agonist AC50, 2014 Release
# [7] = PPARγ, NA = not active, ref Knudsen et al. 2011, read-out: ATG Agonist AC50, 2011 Release
# [8] = ToxCast 2014 release, ref Filer et al. 2014, read-out: Attagene AC50 (panel A, w/o Z-Score Correction ranking)
# [9] = PPARγ, NA = not active, read-out: NCGC Agonist AC50, 2014 Release
# [10] = PPARγ direct binding, NA = not active, ref Filer et al. 2014, read-out: NVS Agonist AC50, 2014 Release
structure (smiles),measurement,setting,value
CC(C)(C)c1ccc(CSc2cnn(C(C)(C)C)c(=O)c2Cl)cc1 [Pyridaben],AC50,GAL4-mPPARγ [1],3 µM
same,EC50,GAL4-mPPARγ [1],2.98 µM
same,Activation of GAL4-PPARγ (text),GAL4-mPPARγ [1],activated PPARγ
same,"PPARγ agonists: EC10, Fig 1A / Fig 4A","GAL4-mPPARγ [1]; COS7, computed from EC50 in GraphPad Quick Calc",0.53 µM
same,"Activation COS7 (result in words), ToxPi chemicals","GAL4-mPPARγ [1]; Cos-7 transient transfection, PPARγ or RXRα activation assays (Table 2)",PPARγ activator
same,Adipogenesis 3T3-L1 (result in words),3T3-L1 preadipocytes,strongly inhibited adipogenesis; also recorded: Inhibitor
same,"PPARγ agonists: EC10, ATG","PPARγ [2]; AC10, ToxCast 2014 release, ref Filer et al. 2014",2.57 µM
same,AC50,"PPARγ [2]; ToxCast Phase I 2011 release, NA = not active, ref Knudsen et al. 2011, read-out: ATGT PPARγ AC50",14 µM
same,EC50,"PPARγ [2]; gain AC50, ToxCast 2014 release, ref Filer et al. 2014, read-out: PPARγ agonists: EC50, ATG",10.1 µM
same,AC50,PPRE,1.6 µM
O=C(Nc1ccc([N+](=O)[O-])cc1Cl)c1cc(Cl)ccc1O [Niclosamide],"Activation COS7 (result in words), ToxCast PPARγ list","GAL4-mPPARγ [1]; Cos-7 transient transfection, PPARγ activation or antagonism assays (Table 1, Table S6)",Inactive
same,AC50,PPARγ [2]; [6],0.56 µM
same,AC50,PPARγ [2]; [7],0.56 µM
same,AC50,PPARγ [2]; [8],0.6 µM
same,AC50,PPARγ [3]; [9],29.9 µM
same,AC50,PPARγ [4],35.9 µM
CCOCN(C(=O)CCl)c1c(C)cccc1CC [Acetochlor],Activation of GAL4-PPARγ (text),GAL4-mPPARγ [1],did not activate PPARγ
same,AC50,"GAL4-mPPARγ [5]; Activation AC50 (PPARγ antagonists), Cos-7 transient transfection, competition with 50 nM rosiglitazone",46.7 µM
same,Antagonism of PPARγ,"GAL4-mPPARγ [5]; COS7, competition against 50 nM rosiglitazone",weak antagonists
same,IC50,"GAL4-mPPARγ [5]; COS7, in competition with 50 nM rosiglitazone",46.7 µM
same,"PPARγ antagonists: IC10, Fig 1B","GAL4-mPPARγ [5]; COS7, in competition with 50 nM rosiglitazone, computed from IC50",9.54 µM
same,Activation COS7 (result in words): PPARγ antagonist,"GAL4-mPPARγ [5]; Cos-7 transient transfection, competition with 50 nM rosiglitazone",PPARγ antagonist
same,Adipogenesis 3T3-L1 (result in words),3T3-L1 preadipocytes,Negative
same,AC50,PPARγ [2]; [6],1.5 µM
same,AC50,PPARγ [2]; [7],1.7 µM
same,"PPARγ antagonists: IC10, NCGC","PPARγ [4]; AC10, ToxCast 2014 release",0.42 µM
same,AC50,PPARγ [4],4.5 µM
same,IC50,"PPARγ [4]; read-out: PPARγ antagonists: IC50, NCGC, gain AC50, ToxCast 2014 release",4.5 µM
N#Cc1c(Cl)c(Cl)c(Cl)c(C#N)c1Cl [Chlorothalonil],"Activation COS7 (result in words), ToxCast PPARγ list",GAL4-mPPARγ [1],Inactive
same,"ATG Agonist AC50, 2011 Release","PPARγ [2]; PPARγ, NA = not active, ref Knudsen et al. 2011",negative
same,AC50,Human PPARγ; [10],0.46 µM
same,AC50,"Human PPARγ; PPARγ direct binding, NA = not active, ref Knudsen et al. 2011, read-out: NVS Agonist AC50, 2011 Release",0.6 µM
same,AC50,PPARγ [3]; [9],82.8 µM
same,AC50,PPARγ [4],0.9 µM
COC(=O)N(C(=O)N1CO[C@@]2(C(=O)OC)Cc3cc(Cl)ccc3C2=N1)c1ccc(OC(F)(F)F)cc1 [Indoxacarb],"Activation COS7 (result in words), ToxCast PPARγ list",GAL4-mPPARγ [1],Inactive
same,AC50,PPARγ [2]; [6],6.1 µM
same,AC50,PPARγ [2]; [7],8.5 µM
same,AC50,PPARγ [3]; [9],44.1 µM
same,AC50,PPARγ [4],10.7 µM
CCNc1nc(Cl)nc(NC(C)C)n1 [Atrazine],Activation of GAL4-PPARγ (text),GAL4-mPPARγ [1],inactive
same,Activation of RXRα,GAL4-hRXRα,inactive
same,AC50,PPARγ [2]; [8],15.2 µM
same,AC50,"PPARγ [2]; ToxCast 2014 release, ref Filer et al. 2014, read-out: Attagene AC50 (panel B, with Z-Score Correction ranking)",15.2 µM
same,AC50,"Human PPARγ; direct binding, ToxCast 2014 release, ref Filer et al. 2014, read-out: NovaScreen AC50 (panel A)",0.3 µM
same,AC50,"Human PPARγ; direct binding, ToxCast 2014 release, ref Filer et al. 2014, read-out: NovaScreen AC50 (panel B)",0.3 µM
same,AC50,"PPARγ [3]; ToxCast 2014 release, read-out: Tox21/NCGC AC50 (panel A)",0.2 µM
same,AC50,"PPARγ [3]; ToxCast 2014 release, read-out: Tox21/NCGC AC50 (panel B)",0.2 µM
"O=C(O)COc1ccc(Cl)cc1Cl [2,4-D, 2,4-dichlorophenoxyacetic acid]",Activation of RXRα,GAL4-hRXRα,inactive
COc1ccc(C(=CC(=O)N2CCOCC2)c2ccc(Cl)cc2)cc1OC [Dimethomorph],"Activation COS7 (result in words), ToxCast PPARγ list",GAL4-mPPARγ [1],Inactive
same,AC50,PPARγ [2]; [6],9.4 µM and 10.1 µM
same,AC50,PPARγ [2]; [7],11 µM
same,AC50,Human PPARγ; [10],9.6 µM
same,AC50,PPARγ [4],32.3 µM
